Source: PMC10979849 (bioRxiv, 2024)

Biological target: T1, wild-type (WT) Octβ2R (Drosophila melanogaster, UniProt Q4LBB9)
T1 sequence (Q4LBB9 1-536): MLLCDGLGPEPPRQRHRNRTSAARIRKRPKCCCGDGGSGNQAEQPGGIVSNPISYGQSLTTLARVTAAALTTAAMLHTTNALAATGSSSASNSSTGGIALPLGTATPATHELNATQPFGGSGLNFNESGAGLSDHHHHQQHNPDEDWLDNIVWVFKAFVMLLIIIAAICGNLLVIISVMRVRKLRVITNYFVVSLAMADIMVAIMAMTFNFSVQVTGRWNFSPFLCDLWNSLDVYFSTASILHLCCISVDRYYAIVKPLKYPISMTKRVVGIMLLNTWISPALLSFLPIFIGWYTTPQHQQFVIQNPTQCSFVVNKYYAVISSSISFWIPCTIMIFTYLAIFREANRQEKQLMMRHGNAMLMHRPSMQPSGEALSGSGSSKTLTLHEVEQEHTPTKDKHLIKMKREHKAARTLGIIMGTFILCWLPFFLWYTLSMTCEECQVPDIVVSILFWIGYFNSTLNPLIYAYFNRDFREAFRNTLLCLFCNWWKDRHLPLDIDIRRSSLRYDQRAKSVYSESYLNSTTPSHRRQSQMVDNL
Experiment: Tango β-arrestin assay
Format: cell-based
Details: agonist; OA 1 nM to 100 μM, ~16 h (Tango)

`NC[C@H](O)c1ccc(O)cc1` [Octopamine] was tested, and the “Tango β-arrestin assay (HTLA cells); RFlamp cAMP assay (HEK293T)” value was “negligible β-arrestin-dependent signaling compared to cells expressing WT Octβ2R, even at high concentrations of OA”.
